Reference: patent publication US6642392B1 (priority 1997, dated 2003)
Like-named read-outs stand apart in the source and are kept apart here.

What was measured:
Format in all cases: in vivo
[1] = system: Eiysiphe graminis f. sp. tritici; assay: Test A: wheat powdery mildew, preventive spray on wheat seedlings; conditions: for Test A disease control rating (100 = 100% disease control, 0 = no disease control): wheat seedlings sprayed to run-off, inoculated the following day, rating relative to controls, unmarked compounds (standard test rate); for Test A disease control rating: wheat powdery mildew
Method in brief: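 Compounds (3% acetone, 250 ppm Trem 014) sprayed to run-off on wheat seedlings, inoculated next day with spore dust. Incubated 7 days at 20° C before disease rating, 0–100% control relative to untreated controls.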

Botrytis cinerea = assay: Test E: gray mold, preventive spray on cucumber seedlings; conditions: for Test E disease control rating (100 = 100% disease control, 0 = no disease control): cucumber seedlings sprayed to run-off, inoculated the following day, rating relative to controls, unmarked compounds (standard test rate); for Test E disease control rating: gray mold on cucumber
Method in brief: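 Compounds in 3% acetone were suspended with 250 ppm Trem 014 surfactant and sprayed to run-off on cucumber seedlings. B. cinerea spores were inoculated next day, then 48 h saturated humidity at 20° C and 5 days at 20° C. Disease control rated 0–100% versus controls.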

Puccinia recondita = assay: Test B: wheat leaf rust, preventive spray on wheat seedlings; conditions: for Test B disease control rating (100 = 100% disease control, 0 = no disease control): wheat seedlings sprayed to run-off, inoculated the following day, rating relative to controls, unmarked compounds (standard test rate); for Test B disease control rating: wheat leaf rust
Method in brief: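 Wheat seedlings were sprayed to run-off with compound (3% acetone, 250 ppm Trem 014), then inoculated with P. recondita spores the next day. They were held 24 h saturated at 20 °C, then 6 days at 20 °C. Ratings are 0–100% disease control versus controls.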

Phytophthora infestans = conditions: for Test D disease control rating (100 = 100% disease control, 0 = no disease control): tomato seedlings sprayed to run-off, inoculated the following day, rating relative to controls, unmarked compounds (standard test rate); for Test D disease control rating: tomato late blight
Pyricularia oryzae = conditions: for Test C disease control rating (100 = 100% disease control, 0 = no disease control): rice seedlings sprayed to run-off, inoculated the following day, rating relative to controls, unmarked compounds (standard test rate); for Test C disease control rating: rice blast
[2] = 100 = 100% disease control, 0 = no control relative to controls, unmarked entries (standard test concentration)
[3] = 100 = 100% disease control, 0 = no control, unmarked entries (standard test concentration)

Row | Structure (SMILES) | Test A disease control rating [1, 2] | Test E disease control rating (Botrytis cinerea; [3]) | Test B disease control rating (Puccinia recondita; [3]) | Test D disease control rating (Phytophthora infestans; [3]) | Test C disease control rating (Pyricularia oryzae; [3]) | other results
1 | CC(C=Cc1ccccc1)NC(=O)C(C#N)C(C)(C)C (mixture of isomers) [compound 228] |  |  |  |  |  | Test A disease control rating (100 = 100% disease control, 0 = no disease control) [1]: 95%; Test E disease control rating (100 = 100% disease control, 0 = no disease control) (Botrytis cinerea): 47%; Test B disease control rating (100 = 100% disease control, 0 = no disease control) (Puccinia recondita): 0%; Test D disease control rating (100 = 100% disease control, 0 = no disease control) (Phytophthora infestans): 7%; Test C disease control rating (100 = 100% disease control, 0 = no disease control) (Pyricularia oryzae): 52%
2 | CCC1(C(=O)NC(C)COc2cc(F)cc(F)c2C#N)C(C)C1(Cl)Cl (mixture of isomers) [compound 135] | 0% | 0% | 0% | 2% | 53% | 
3 | CC(COc1c(F)cccc1C#N)NC(=O)C(C#N)C(C)(C)C (mixture of isomers) [compound 203] | 0% | 0% | 28% | 0% | 91% | 
4 | Cc1c(Cl)cc(C#N)n1CCC(C)NC(=O)C(C#N)C(C)C(C)(C)C (mixture of isomers) [compound 72] | 0% | 0% | 0% | 0% | 91% | 
5 | C=CCc1ccccc1OCC(C)NC(=O)C1(C)CC1(Cl)Cl (mixture of isomers) [compound 314] |  |  |  |  |  | Test A disease control rating (100 = 100% disease control, 0 = no disease control) [1]: 0%; Test E disease control rating (100 = 100% disease control, 0 = no disease control) (Botrytis cinerea): 0%; Test B disease control rating (100 = 100% disease control, 0 = no disease control) (Puccinia recondita): 0%; Test D disease control rating (100 = 100% disease control, 0 = no disease control) (Phytophthora infestans): 0%; Test C disease control rating (100 = 100% disease control, 0 = no disease control) (Pyricularia oryzae): 72%
6 | CC(COc1ccccc1)NC(=O)C(C#N)C(C)(C)C (mixture of isomers) [1a] | 60% | 0% | 0% | 0% | 53% | 
7 | CCC(C#N)C(=O)NC(C)C(Oc1cc(F)ccc1C#N)c1ccccc1 (mixture of isomers) [compound 286] |  |  |  |  |  | Test A disease control rating (100 = 100% disease control, 0 = no disease control) [1]: 76%; Test E disease control rating (100 = 100% disease control, 0 = no disease control) (Botrytis cinerea): 0%; Test B disease control rating (100 = 100% disease control, 0 = no disease control) (Puccinia recondita): 0%; Test D disease control rating (100 = 100% disease control, 0 = no disease control) (Phytophthora infestans): 0%; Test C disease control rating (100 = 100% disease control, 0 = no disease control) (Pyricularia oryzae): 99%
8 | C[C@H](COc1ccc(F)c(Cl)c1)NC(=O)C(C#N)C(C)(C)C (single isomer, unassigned) [183b] | 86% | 69% | 28% | 35% | 94% | 
9 | CC(COc1cccc(Cl)c1C#N)NC(=O)C(C#N)C(C)(C)C (mixture of isomers) [compound 42] | 0% | 0% | 0% | 2% | 53% | 
10 | CCC1(C(=O)NC(C)COc2cccc(Cl)c2Cl)C(C)C1(Cl)Cl (centres unmarked) [compound 111] |  |  |  |  |  | Test A disease control rating ([1]; tested at 40 ppm): 90%; Test E disease control rating (Botrytis cinerea; tested at 40 ppm): 0%; Test B disease control rating (Puccinia recondita; tested at 40 ppm): 0%; Test D disease control rating (Phytophthora infestans; tested at 40 ppm): 90%; Test C disease control rating (Pyricularia oryzae; tested at 40 ppm): 0%
11 | CCC1(C(=O)NC(C)COc2cccc(CF)c2)C(C)C1(Cl)Cl (mixture of isomers) [compound 102] |  |  |  |  |  | Test A disease control rating ([1]; tested at 40 ppm): 60%; Test E disease control rating (Botrytis cinerea; tested at 40 ppm): 0%; Test B disease control rating (Puccinia recondita; tested at 40 ppm): 0%; Test D disease control rating (Phytophthora infestans; tested at 40 ppm): 0%; Test C disease control rating (Pyricularia oryzae; tested at 40 ppm): 0%
12 | CCC1(C(=O)NC(C)COn2cc(Cl)cc2C#N)C(C)C1(Cl)Cl (mixture of isomers) [compound 138] | 0% | 0% | 0% | 13% | 53% | 
13 | CC(C)(C)C(C#N)C(=O)NC/C=C/c1ccccc1Cl (racemic) [compound 179] | 35% | 58% | 0% | 23% | 74% | 
